Data: US12520844B2 (Bayer Aktiengesellschaft, priority 2020, dated 2026)

experiment: Measurement of Log P values by HPLC on reversed phase columns (EEC directive 79/831 Annex V.A8); assay type: physicochemical
Experimental: Measurement of Log P values as provided herein was performed according to EEC directive 79/831 Annex V.A8 by HPLC (High Performance Liquid Chromatography) on reversed phase columns with the following methods: • ^[a] Log P value is determined by measurement of LC-UV, in an acidic range, with 0.1% formic acid in water and acetonitrile as eluent (linear gradient from 10% acetonitrile to 95% acetonitrile). • ^[b] Log P value is determined by measurement of LC-UV, in a neutral range, with 0.001 molar ammonium acetate solution in water and acetonitrile as eluent (linear gradient from 10% acetonitrile to 95% acetonitrile). • ^[c] Log P value is determined by measurement of LC-UV, in an acidic range, with 0.1% phosphoric acid and acetonitrile as eluent (linear gradient from 10% acetonitrile to 95% acetonitrile).
If more than one Log P value is available within the same method, all the values are given and separated by “+”.
Calibration was done with straight-chain alkan2-ones (with 3 to 16 carbon atoms) with known Log P values (measurement of Log P values using retention times with linear interpolation between successive alkanones). Lambda-max-values were determined using UV-spectra from 200 nm to 400 nm and the peak values of the chromatographic signals

Row | SMILES | LogP
1 | CCOc1cccc(Oc2cnc(C)nc2C(=O)NCC(F)(F)c2ccc(C)cc2C)c1 [Compound I-047] | 4.13^[a]
2 | Cc1ccc(C(F)=CNC(=O)c2nc(C3CC3)nnc2Oc2cccc(Br)c2F)c(C)c1 [Compound I-048] | 5.04^[a]
3 | Cc1ccc(C(F)(F)CNC(=O)c2nc(C)ncc2Oc2ccc(C(F)(F)F)cc2)c(C)c1 [Compound I-049] | 4.39^[a]
4 | Cc1ccc(C(F)(F)CNC(=O)c2nc(C3CC3)nnc2Oc2cccc(C)c2F)c(C)c1 [Compound I-050] | 4.47^[a]
5 | Cc1ccc(/C(F)=C\NC(=O)c2nc(C3CC3)nnc2Oc2cccc(C)c2F)c(C)c1 [Compound I-051] | 5.16^[a]
6 | Cc1cnn(CCNC(=O)c2nc(C)ncc2Oc2cccc(C3CC3)c2F)c1 [Compound I-052] | 2.59^[a]
7 | Cc1ccc2c(c1)CCCC2NC(=O)c1nc(C)ncc1Oc1cccc(C2CC2)c1F (centres unmarked) [Compound I-053] | 4.49^[a]
8 | Cc1ncc(Oc2cccc(C3CC3)c2F)c(C(=O)NCCOc2ccc(Cl)cc2)n1 [Compound I-054] | 3.93^[a]
9 | Cc1ccc2c(c1)C(NC(=O)c1nc(C)ncc1Oc1cccc(C3CC3)c1F)CC(C)(C)O2 (centres unmarked) [Compound I-055] | 4.42^[a]
10 | Cc1ccc(C(F)(F)CNC(=O)c2nc(C)ncc2Oc2cccc(C3COC3)c2)c(C)c1 [Compound I-056] | 3.32^[a]
11 | Cc1ncc(Oc2cccc(C3CC3)c2F)c(C(=O)NC2CCS(=O)(=O)c3ccccc32)n1 (centres unmarked) [Compound I-057] | 2.78^[a]
12 | Cc1ccc(C(F)(F)CNC(=O)c2nc(C)ncc2Oc2ccccc2)c(C)c1 [Compound I-058] | 3.71^[a]
13 | COCCOc1cccc(Oc2cnc(C)nc2C(=O)NCC(F)(F)c2ccc(C)cc2C)c1 [Compound I-059] | 3.66^[a]
14 | COc1ccc2c(c1)C(NC(=O)c1nc(C)ncc1Oc1cccc(C3CC3)c1F)C(OC)CC2 (centres unmarked) [Compound I-060] | 3.72^[a]
15 | COc1cccc(Oc2nnc(C3CC3)nc2C(=O)N/C=C(\F)c2ccc(C)cc2C)c1 [Compound I-061] | 4.44^[a]
16 | Cc1ccc(C(F)(F)CNC(=O)c2nc(C3CC3)nnc2Oc2cccc(Br)c2)c(C)c1 [Compound I-062] | 4.59^[a]
17 | Cc1ncc(Oc2cccc(C3CC3)c2F)c(C(=O)NCCc2cccs2)n1 [Compound I-064] | 3.43^[a]
18 | CCC(=O)N(CCc1ccccc1)C(=O)c1nc(C)ncc1Oc1cccc(C2CC2)c1F [Compound I-066] | 4.52^[a]
19 | COc1ccc(CCN(C(C)=O)C(=O)c2nc(C)ncc2Oc2cccc(C3CC3)c2F)cc1 [Compound I-067] | 4.01^[a]
20 | Cc1ccc(C(F)(F)CNC(=O)c2nc(C)ncc2Oc2cncc(C(F)(F)F)c2)c(C)c1 [Compound I-068] | 3.73^[a]
21 | Cc1ncc(Oc2cccc(C3CC3)c2F)c(C(=O)NC2CCCc3cc(Br)ccc32)n1 (centres unmarked) [Compound I-069] | 4.71^[a]
22 | Cc1ncc(Oc2cccc(C3CC3)c2F)c(C(=O)NCC(F)(F)c2cc(Cl)sc2Cl)n1 [Compound I-070] | 4.69^[a]
23 | CCc1cccc(Oc2cnc(C)nc2C(=O)NCC(F)(F)c2ccc(C)cc2C)c1 [Compound I-071] | 4.42^[a]

Row | SMILES | LogP
24 | COCc1cccc(Oc2cnc(C)nc2C(=O)NCC(F)(F)c2ccc(C)cc2C)c1 [Compound I-072] | 3.67^[a]
25 | C#Cc1cccc(Oc2nnc(C3CC3)nc2C(=O)NCC(F)(F)c2ccc(C)cc2C)c1 [Compound I-073] | 4.26^[a]
26 | Cc1cc(C)n(CCNC(=O)c2nc(C)ncc2Oc2cccc(C3CC3)c2F)n1 [Compound I-075] | 2.60^[a]
27 | Cc1ncc(Oc2cccc(C3CC3)c2F)c(C(=O)NC(C)c2ccc(Cl)s2)n1 (centres unmarked) [Compound I-076] | 4.09^[a]
28 | Cc1ncc(Oc2cccc(C3CC3)c2F)c(C(=O)NCCc2ccc3c(c2)OCCO3)n1 [Compound I-077] | 3.30^[a]
29 | Cc1ncc(Oc2cccc(C3CC3)c2F)c(C(=O)NC2CCCc3sc(C4CC4)nc32)n1 (centres unmarked) [Compound I-078] | 3.81^[a]
30 | Cc1ccc(C(F)(F)CNC(=O)c2nc(C)ncc2Oc2cccc(C#N)c2)c(C)c1 [Compound I-079] | 3.53^[a]
31 | Cc1ncc(Oc2cccc(C3CC3)c2F)c(C(=O)NC2CC(C)(C)Oc3cc(Cl)c(F)cc32)n1 (centres unmarked) [Compound I-080] | 4.87^[a]
32 | Cc1ncc(Oc2cccc(C3CC3)c2F)c(C(=O)NCCOc2ccc(C(F)(F)F)cc2Cl)n1 [Compound I-081] | 4.52^[a]
33 | COc1cccc(Oc2nnc(C3CC3)nc2C(=O)NCC(F)(F)c2ccc(C)cc2C)c1 [Compound I-082] | 4.19^[a]
34 | Cc1ccc(C(F)(F)CNC(=O)c2nc(C)ncc2Oc2cccc(C)c2F)c(C)c1 [Compound I-083] | 4.07^[a]
35 | COc1cccc(Oc2cnc(C)nc2C(=O)NCC(F)(F)c2ccc(C)cc2C)c1F [Compound I-084] | 3.71^[a]
36 | Cc1ccc(C(F)(F)CNC(=O)c2nc(C)ncc2Oc2cccc(Br)c2)c(C)c1 [Compound I-085] | 4.28^[a]
37 | Cc1ncc(Oc2cccc(C3CC3)c2F)c(C(=O)NCCn2cc(Cl)cn2)n1 [Compound I-086] | 2.88^[a]
38 | Cc1ncc(Oc2cccc(C3CC3)c2F)c(C(=O)NCCc2ccc3c(c2)CCO3)n1 [Compound I-087] | 3.43^[a]
39 | Cc1ncc(Oc2cccc(C3CC3)c2F)c(C(=O)N(Cc2ccccc2)OCC(C)C)n1 [Compound I-088] | 4.72^[a]
40 | COc1cc(C(F)CNC(=O)c2nc(C)ncc2Oc2cccc(C3CC3)c2F)ccc1Cl (centres unmarked) [Compound I-089] | 3.93^[a]
41 | Cc1ccc(C(F)(F)CNC(=O)c2nc(C)ncc2Oc2cccc([N+](=O)[O-])c2)c(C)c1 [Compound I-090] | 3.75^[a]
42 | Cc1ccc(C(F)(F)CNC(=O)c2nc(C)ncc2Oc2cccc3c2CCC3)c(C)c1 [Compound I-092] | 4.49^[a]
43 | Cc1ccc(C(F)(F)CNC(=O)c2nc(C)ncc2Oc2ccc(C)c(Cl)c2)c(C)c1 [Compound I-093] | 4.54^[a]
44 | Cc1ccc(C(F)(F)CNC(=O)c2nc(C)ncc2Oc2cccc(OC(F)(F)F)c2)c(C)c1 [Compound I-094] | 4.50^[a]
45 | Nc1ncc(Oc2cccc(C(F)(F)F)c2)c(C(=O)NCCc2ccc(Br)cc2)n1 [Compound I-095] | 4.05^[a]
46 | CC(NC(=O)c1nc(F)ncc1Oc1cccc(C(F)(F)F)c1)c1cccc(C(F)(F)F)c1 (centres unmarked) [Compound I-096] | 2.88^[a]

Row | SMILES | LogP
47 | Cc1ncc(Oc2cccc(C3CC3)c2F)c(C(=O)NOCc2ccc(C#N)cc2)n1 [Compound I-097] | 2.87^[a]
48 | Cc1ncc(Oc2cccc(C3CC3)c2F)c(C(=O)NCCc2ccc(OC(C)C)nc2)n1 [Compound I-099] | 3.44^[a]
49 | Cc1ncc(Oc2cccc(C3CC3)c2F)c(C(=O)NOCc2ccc(OC(F)(F)F)cc2)n1 [Compound I-100] | 3.89^[a]
50 | C#Cc1cccc(Oc2cnc(C)nc2C(=O)NCC(F)(F)c2ccc(C)cc2C)c1 [Compound I-102] | 4.01^[a]
51 | Cc1ccc(C(F)(F)CNC(=O)c2nc(C)ncc2Oc2cccc(C3CC3)c2F)c(C)c1 [Compound I-103] | 4.44^[a]
52 | Cc1ccc(C(F)(F)CNC(=O)c2nc(C)ncc2Oc2ccc3c(c2)CCC3)c(C)c1 [Compound I-104] | 4.56^[a]
53 | Cc1ccc(/C(F)=C/NC(=O)c2nc(C3CC3)nnc2Oc2cccc(Cl)c2F)c(C)c1 [Compound I-105] | 5.36^[a]
54 | Cc1ccc(C(F)(F)CNC(=O)c2nc(C)ncc2Oc2ccc3ccccc3c2)c(C)c1 [Compound I-106] | 4.35^[a]
55 | Cc1ccc(/C(F)=C/NC(=O)c2nc(C3CC3)nnc2Oc2cccc(C)c2F)c(C)c1 [Compound I-107] | 4.85^[a]
56 | Cc1ccc(C(F)(F)CNC(=O)c2nc(C)ncc2Oc2ccc(Cl)c(C(F)(F)F)c2)c(C)c1 [Compound I-108] | 4.72^[a]
57 | Cc1ccc(/C(F)=C\NC(=O)c2nc(C3CC3)nnc2Oc2cccc(Cl)c2F)c(C)c1 [Compound I-109] | 5.00^[a]
58 | Cc1nnc(Oc2cccc(C(F)(F)F)c2)c(C(=O)NCC2(c3ccc(Cl)cc3)COC2)n1 [Compound I-110] | 3.35^[a]
59 | CCN(CCc1ccccc1)C(=O)c1nc(C)ncc1Oc1cccc(C2CC2)c1F [Compound I-111] | 4.04^[a]
60 | Cc1ccc(/C(F)=C/NC(=O)c2nc(C3CC3)nnc2Oc2cccc(C3CC3)c2F)c(C)c1 [Compound I-112] | 5.20^[a]
61 | Cc1ncc(Oc2cccc(C3CC3)c2F)c(C(=O)NC2CCOc3c(C)cccc32)n1 (centres unmarked) [Compound I-113] | 4.02^[a]
62 | Cc1ncc(Oc2cccc(C3CC3)c2F)c(C(=O)NC2CCCc3ccc(Cl)cc32)n1 (centres unmarked) [Compound I-114] | 4.46^[a]
63 | C=Cc1cccc(Oc2cnc(C)nc2C(=O)NCC(F)(F)c2ccc(C)cc2C)c1 [Compound I-115] | 4.17^[a]
64 | COc1ccc2c(c1)C(NC(=O)c1nc(C)ncc1Oc1cccc(C3CC3)c1F)C(OC)CC2 (centres unmarked) [Compound I-116] | 3.99^[a]
65 | Cc1ccc(C(F)(F)CNC(=O)c2nc(C)nnc2Oc2cccc(C3CC3)c2)c(C)c1 [Compound I-117] | 4.33^[a]
66 | Cc1ccc(C(F)(F)CNC(=O)c2nc(C)ncc2Oc2cnc3c(c2)CCC3)c(C)c1 [Compound I-118] | 2.78^[a]
67 | Cc1nnc(Oc2cccc(C(F)(F)F)c2)c(C(=O)NC(C)c2cccc(C(F)(F)F)c2)n1 (centres unmarked) [Compound I-119] | 3.77^[a]
68 | Cc1ccc(C(F)(F)CNC(=O)c2nc(C)ncc2Oc2cnc3ccccc3c2)c(C)c1 [Compound I-120] | 3.40^[a]
